Assay results from ChEMBL document CHEMBL2413072, “Synthesis and in vitro anticancer studies of novel C-2 arylidene congeners of lantadenes” (2013).

Columns and labels:
Type in all cases: functional
MDA-MB-435 = test: Growth inhibition of human MDA-MB-435 cells assessed as cell growth at 10^-4 M by sulforhodamine B assay; conditions: read-out: Activity
Malme-3M [1] = test: Growth inhibition of human MALME-3M cells by sulforhodamine B assay
[2] = Growth inhibition of human NCI-ADR-RES cells assessed as cell growth at 10^-4 M by sulforhodamine B assay; conditions: read-out: Activity
KM12 [3] = test: Growth inhibition of human KM12 cells assessed as cell growth at 10^-6 M by sulforhodamine B assay; conditions: read-out: Activity
OVCAR-4 [4] = test: Growth inhibition of human OVCAR4 cells by sulforhodamine B assay
ACHN = test: Growth inhibition of human ACHN cells assessed as cell growth at 10^-6 M by sulforhodamine B assay; conditions: read-out: Activity
MOLT-4 [5] = test: Growth inhibition of human MOLT4 cells assessed as cell growth at 10^-8 M by sulforhodamine B assay; conditions: read-out: Activity
KM12 [6] = test: Growth inhibition of human KM12 cells assessed as cell growth at 10^-4 M by sulforhodamine B assay; conditions: read-out: Activity
Malme-3M [7] = test: Growth inhibition of human MALME-3M cells assessed as cell growth at 10^-6 M by sulforhodamine B assay; conditions: read-out: Activity
NCI-H226 = test: Growth inhibition of human NCI-H226 cells assessed as cell growth at 10^-8 M by sulforhodamine B assay; conditions: read-out: Activity
NCI-H322M = test: Growth inhibition of human NCI-H322M cells assessed as cell growth at 10^-6 M by sulforhodamine B assay; conditions: read-out: Activity
A498 = test: Growth inhibition of human A498 cells assessed as cell growth at 10^-6 M by sulforhodamine B assay; conditions: read-out: Activity
CCRF-CEM = test: Growth inhibition of human CCRF-CEM cells assessed as cell growth at 10^-7 M by sulforhodamine B assay; conditions: read-out: Activity
OVCAR-4 [8] = test: Growth inhibition of human OVCAR4 cells assessed as cell growth at 10^-8 M by sulforhodamine B assay; conditions: read-out: Activity
[9] = Growth inhibition of human HCC2998 cells assessed as cell growth at 10^-8 M by sulforhodamine B assay; conditions: HCC 2998, read-out: Activity
SK-MEL-5 = test: Growth inhibition of human SK-MEL-5 cells by sulforhodamine B assay
SN12C = test: Growth inhibition of human SN12C cells assessed as cell growth at 10^-8 M by sulforhodamine B assay; conditions: read-out: Activity
HL-60(TB) = test: Growth inhibition of human HL-60(TB) cells assessed as cell growth at 10^-7 M by sulforhodamine B assay; conditions: read-out: Activity
MOLT-4 [10] = test: Growth inhibition of human MOLT4 cells by sulforhodamine B assay
MOLT-4 [11] = test: Growth inhibition of human MOLT4 cells assessed as cell growth at 10^-7 M by sulforhodamine B assay; conditions: read-out: Activity
UACC-257 [12] = test: Growth inhibition of human UACC257 cells by sulforhodamine B assay
RXF 393 = test: Growth inhibition of human RXF393 cells assessed as cell growth at 10^-7 M by sulforhodamine B assay; conditions: read-out: Activity
786-0 = test: Growth inhibition of human 786-0 cells assessed as cell growth at 10^-4 M by sulforhodamine B assay; conditions: read-out: Activity
SW-620 = test: Growth inhibition of human SW620 cells assessed as cell growth at 10^-7 M by sulforhodamine B assay; conditions: read-out: Activity
SNB-75 = test: Growth inhibition of human SNB75 cells assessed as cell growth at 10^-7 M by sulforhodamine B assay; conditions: read-out: Activity
OVCAR-8 = test: Growth inhibition of human OVCAR8 cells by sulforhodamine B assay
HOP-92 [13] = test: Growth inhibition of human HOP92 cells assessed as cell growth at 10^-4 M by sulforhodamine B assay; conditions: read-out: Activity
MDA-MB-231 [14] = test: Growth inhibition of human MDA-MB-231 cells by sulforhodamine B assay
HOP-92 [15] = test: Growth inhibition of human HOP92 cells by sulforhodamine B assay
[16] = Growth inhibition of human NCI-ADR-RES cells assessed as cell growth at 10^-8 M by sulforhodamine B assay; conditions: read-out: Activity
M14 = test: Growth inhibition of human M14 cells assessed as cell growth at 10^-7 M by sulforhodamine B assay; conditions: read-out: Activity
NCI-H460 = test: Growth inhibition of human NCI-H460 cells assessed as cell growth at 10^-8 M by sulforhodamine B assay; conditions: read-out: Activity
DU-145 [17] = test: Growth inhibition of human DU145 cells assessed as cell growth at 10^-7 M by sulforhodamine B assay; conditions: read-out: Activity
UACC-257 [18] = test: Growth inhibition of human UACC257 cells assessed as cell growth at 10^-8 M by sulforhodamine B assay; conditions: read-out: Activity
[19] = Growth inhibition of human Hs 578T cells by sulforhodamine B assay
SK-MEL-2 = test: Growth inhibition of human SK-MEL-2 cells by sulforhodamine B assay
MDA-MB-231 [20] = test: Growth inhibition of human MDA-MB-231 cells assessed as cell growth at 10^-8 M by sulforhodamine B assay; conditions: read-out: Activity
DU-145 [21] = test: Growth inhibition of human DU145 cells assessed as cell growth at 10^-8 M by sulforhodamine B assay; conditions: read-out: Activity
[22] = read-out: LC50 (the source's name)
[23] = read-out: pLC50 (the source's name) (converted)

## CC(C)=CC(=O)O[C@@H]1CC(C)(C)C[C@H]2C3=CC[C@@H]4[C@@]5(C)CCC(=O)C(C)(C)[C@@H]5CC[C@@]4(C)[C@]3(C)CC[C@@]12C(=O)O
MDA-MB-435
  growth at 100 µM: 1%
Malme-3M [1]; read-out: GI50
  GI50: 11.4 µM
Malme-3M [1]; [22]
  CC50: > 100 µM
Malme-3M [1]; read-out: TGI
  TGI: 81 µM
Malme-3M [1]; read-out: pGI50 (converted)
  GI50: 11.5 µM
Malme-3M [1]; [23]
  CC50: > 100 µM
Malme-3M [1]; read-out: pTGI (converted)
  TGI: 81.3 µM
[2]
  growth at 100 µM: 14%
KM12 [3]
  growth at 1 µM: 48%
OVCAR-4 [4]; read-out: GI50
  GI50: 5.07 µM
OVCAR-4 [4]; [22]
  CC50: > 100 µM
OVCAR-4 [4]; read-out: TGI
  TGI: > 100 µM
OVCAR-4 [4]; read-out: pGI50 (converted)
  GI50: 5.01 µM
OVCAR-4 [4]; [23]
  CC50: > 100 µM
OVCAR-4 [4]; read-out: pTGI (converted)
  TGI: > 100 µM
ACHN
  growth at 1 µM: 73%
MOLT-4 [5]
  growth at 0.01 µM: 107%
KM12 [6]
  growth at 100 µM: -69%
Malme-3M [7]
  growth at 1 µM: 91%
NCI-H226
  growth at 0.01 µM: 95%
NCI-H322M
  growth at 1 µM: 83%
A498
  growth at 1 µM: 61%
CCRF-CEM
  growth at 0.1 µM: 99%
OVCAR-4 [8]
  growth at 0.01 µM: 99%
[9]
  growth at 0.01 µM: 97%
SK-MEL-5; read-out: GI50
  GI50: 1500 nM
SK-MEL-5; [22]
  CC50: 46.2 µM
SK-MEL-5; read-out: TGI
  TGI: 11.7 µM
SK-MEL-5; read-out: pGI50 (converted)
  GI50: 1510 nM
SK-MEL-5; [23]
  CC50: 45.7 µM
SK-MEL-5; read-out: pTGI (converted)
  TGI: 11.7 µM
SN12C
  growth at 0.01 µM: 99%
HL-60(TB)
  growth at 0.1 µM: 93%
MOLT-4 [10]; read-out: GI50
  GI50: 2920 nM
MOLT-4 [10]; [22]
  CC50: > 100 µM
MOLT-4 [10]; read-out: TGI
  TGI: 20.6 µM
MOLT-4 [10]; read-out: pGI50 (converted)
  GI50: 2950 nM
MOLT-4 [10]; [23]
  CC50: > 100 µM
MOLT-4 [10]; read-out: pTGI (converted)
  TGI: 20.4 µM
MOLT-4 [11]
  growth at 0.1 µM: 100%
UACC-257 [12]; read-out: GI50
  GI50: 4.98 µM
UACC-257 [12]; [22]
  CC50: > 100 µM
UACC-257 [12]; read-out: TGI
  TGI: 50.6 µM
UACC-257 [12]; read-out: pGI50 (converted)
  GI50: 5.01 µM
UACC-257 [12]; [23]
  CC50: > 100 µM
UACC-257 [12]; read-out: pTGI (converted)
  TGI: 50.1 µM
RXF 393
  growth at 0.1 µM: 94%
786-0
  growth at 100 µM: -42%
SW-620
  growth at 0.1 µM: 97%
SNB-75
  growth at 0.1 µM: 90%
OVCAR-8; read-out: GI50
  GI50: 3.81 µM
OVCAR-8; [22]
  CC50: > 100 µM
OVCAR-8; read-out: TGI
  TGI: > 100 µM
OVCAR-8; read-out: pGI50 (converted)
  GI50: 3.8 µM
OVCAR-8; [23]
  CC50: > 100 µM
OVCAR-8; read-out: pTGI (converted)
  TGI: > 100 µM
HOP-92 [13]
  growth at 100 µM: -50%
MDA-MB-231 [14]; read-out: GI50
  GI50: 4.03 µM
MDA-MB-231 [14]; [22]
  CC50: 71.1 µM
MDA-MB-231 [14]; read-out: TGI
  TGI: 21.8 µM
MDA-MB-231 [14]; read-out: pGI50 (converted)
  GI50: 4.07 µM
MDA-MB-231 [14]; [23]
  CC50: 70.8 µM
MDA-MB-231 [14]; read-out: pTGI (converted)
  TGI: 21.9 µM
HOP-92 [15]; read-out: GI50
  GI50: 1700 nM
HOP-92 [15]; [22]
  CC50: > 100 µM
HOP-92 [15]; read-out: TGI
  TGI: 7.02 µM
HOP-92 [15]; read-out: pGI50 (converted)
  GI50: 1700 nM
HOP-92 [15]; [23]
  CC50: > 100 µM
HOP-92 [15]; read-out: pTGI (converted)
  TGI: 7.08 µM
[16]
  growth at 0.01 µM: 103%
M14
  growth at 0.1 µM: 94%
NCI-H460
  growth at 0.01 µM: 105%
DU-145 [17]
  growth at 0.1 µM: 105%
UACC-257 [18]
  growth at 0.01 µM: 88%
[19]; read-out: GI50
  GI50: 4.16 µM
[19]; [22]
  CC50: > 100 µM
[19]; read-out: TGI
  TGI: 53.6 µM
[19]; read-out: pGI50 (converted)
  GI50: 4.17 µM
[19]; [23]
  CC50: > 100 µM
[19]; read-out: pTGI (converted)
  TGI: 53.7 µM
SK-MEL-2; read-out: GI50
  GI50: 3.48 µM
SK-MEL-2; [22]
  CC50: 61.3 µM
SK-MEL-2; read-out: TGI
  TGI: 16.9 µM
SK-MEL-2; read-out: pGI50 (converted)
  GI50: 3.47 µM
SK-MEL-2; [23]
  CC50: 61.7 µM
SK-MEL-2; read-out: pTGI (converted)
  TGI: 17 µM
MDA-MB-231 [20]
  growth at 0.01 µM: 96%
DU-145 [21]
  growth at 0.01 µM: 105%
